Where two headings read alike, the source gives them in different places.
What was measured:
[1] = system: T-lymphoblastic leukemia cell line Molt-4; experiment: Cell viability, trypan blue exclusion, Molt-4; assay type: cell-based, human; conditions: 72 hours incubation
Text: (§1) Following cancer cell lines were used: chronic myeloid leukemia cell lines K562, KU812; acute myeloid leukemia cell lines HL60, U937; T-lymphoblastic leukemia cell line Molt-4; prostate cancer cell line PC-3; breast cancer cell line MCF-7; pancreatic cancer cell line MIA PaCa-2. These cancer cell lines were maintained in tissue culture in standard growth medium containing 10% heat-inactivated fetal bovine serum (FBS). Normal human peripheral blood mononuclear cells (PBMC) were separated from whole blood by Ficoll/Hypaque density gradient centrifugation. Peripheral blood samples were collected from normal donors with due approval from the Human Ethics Committee of Indian Institute of Chemical Biology, Kolkata, India, and all experiments with human blood were conducted under an approved institutional Human Ethics committee protocol. Informed consent was provided according to the Declaration of Helsinki. Cancer cell lines and PBMC (5×10^3) in triplicate were incubated in 0.2 mL of standard growth medium containing 10% FBS with varying concentrations of test compounds of the present invention. After 72 hours of incubation, cells were collected by centrifugation (at 1000 g for 5 minutes) and cell-viability was determined by the trypan blue exclusion assay. At least 200 cells were examined in each sample. Because of monolayer culture, treated and untreated PC-3, MCF-7 and MIA PaCa-2 cells were detached from the wells by treatment with Cell Dissociation Solution (Sigma Chemical, St. Louis, Mo.) before counting. Data are represented as IC50 (minimum concentration required to inhibit the viability by 50%) in Table 5.

[2] = system: Normal human peripheral blood mononuclear cells (PBMC); experiment: Cell viability, trypan blue exclusion, normal PBMC; assay type: cell-based; conditions: 72 hours incubation
Text: as §1

[3] = system: acute myeloid leukemia cell line HL60; experiment: Cell viability, trypan blue exclusion, HL-60; assay type: cell-based; conditions: Homo sapiens
Text: as §1

[4] = system: chronic myeloid leukemia cell line KU812; experiment: Cell viability, trypan blue exclusion, KU812; assay type: cell-based; conditions: Homo sapiens, 72 hours incubation
Text: as §1

[5] = system: chronic myeloid leukemia cell line K562; experiment: Cell viability, trypan blue exclusion, K562; assay type: cell-based; conditions: Homo sapiens
Text: as §1

[6] = system: pancreatic cancer cell line MIA PaCa-2; experiment: Cell viability, trypan blue exclusion, MIA PaCa-2; assay type: cell-based, human; conditions: 72 hours incubation, read-out: Activity (IC50) MIAPaCa-2
Text: as §1

[7] = system: prostate cancer cell line PC-3; experiment: Cell viability, trypan blue exclusion, PC-3; assay type: cell-based, human; conditions: 72 hours incubation
Text: as §1

[8] = system: breast cancer cell line MCF-7; experiment: Cell viability, trypan blue exclusion, MCF-7; assay type: cell-based, human; conditions: 72 hours incubation
Text: as §1

[9] = system: acute myeloid leukemia cell line U937; experiment: Cell viability, trypan blue exclusion, U937; assay type: cell-based; conditions: Homo sapiens, U-937, 72 hours incubation
Text: as §1

[10] = Sensitivity to spontaneous autooxidation (H2O2 level, TMB reagent); assay type: physicochemical; conditions: 30 µM, 30 min and 2 hr in medium alone, with and without Catalase; H2O2 in supernatant
Procedure: Spontaneous autooxidation of compounds having phenolic groups produce reactive oxygen species like H2O2. The enzyme Catalase breaks down H2O2 to water, We therefore incubated Compound 1 and 7 (30 µM each) for 30 min and 2 hr in medium alone in the presence and absence of Catalase. Level of H2O2 in the supernatant was then measured as reported using 3,5,3′,5′-tetramethylbenzidine (TMB) reagent (Plant Physiology, 2004, 136, 3114-3123). FIG. 1 represents the data of sensitivity of spontaneous autooxidation of Compound 1 and Compound 7.

[11] = system: Ehrlich ascites carcinoma (EAC); experiment: Ehrlich ascites carcinoma (EAC) model in vivo; conditions: 30 mg/kg body weight intraperitoneally thrice a week for three weeks, Swiss albino mice
Text: The in vitro studies indicate that hydroxychavicol and other compounds of the present invention induce killing of a variety of cancer cell lines including breast cancer cell line MCF-7 (Table 5). The MCF-7 cell line is of epithelial origin. Studies were extended in vivo in mouse model for a tumor of epithelial origin. Ehrlich ascites carcinoma is a tumor of epithelial origin (Cancer Research, 1958, 18, 1167-1185). EAC was established in Swiss albino mice as described (Biochemical and Biophysical Research Communications, 2001, 288, 658-665). Swiss albino mice were injected with EAC (2×10^6 cells/mouse) intraperitoneally. 2 days post-injection of tumor cells, these mice (5 per group) were injected intraperitoneally with Compound No. 1 (hydroxychavicol) (30 mg/kg body weight) or Compound No. 7 (30 mg/kg body weight) thrice a week for three weeks. One week after the last injection, mice were sacrificed, and viable cells from peritoneal cavity were counted microscopically. Vehicle (dimethyl sulphoxide [DMSO], 0.1%) was used as control.

U937 cells = experiment: Morphology and apoptosis/necrosis in U937 cells (Giemsa; annexin V-FITC/PI flow cytometry); assay type: cell-based, human; conditions: Compound No.1 30 μM, Compound No.7 15 μM, 24 hours, annexin V-FITC/PI
Procedure: U937 cells were treated with standard growth medium alone or with standard growth medium containing hydroxychavicol (30 μM) for 24 hours. Treated and untreated cells were stained with Giemsa and viewed under microscope (magnification ×1000). For measurement of apoptosis/necrosis, cells were left untreated or treated with Compound No. 1 (30 μM) or Compound No.7 (15 μM) for 24 hours. After washing, cells were stained with fluorescein isothiocyanate (FITC)-conjugated annexin V and propidium iodide (PI) and analysed in a flow cytometer (BD LSR, Becton Dickinson).
FIG. 2B indicates flow cytometric determination of apoptosis and necrosis by Compound No.1 (hydroxychavicol) and Compound No.7. Apoptosis and necrosis of U937 cells were induced. Cells were left untreated (extreme left panel), or incubated with Compound No.1 (30 μM) (middle panel) or Compound No.7 (extreme right panel) (15 μM) for 24 hours and processed for flow cytometry after staining with annexin V-FITC and propidium iodide (PI). Viable cells are in the lower left quadrant (stained neither by annexin V nor by PI), early apoptotic cells (stained by annexin V only) are in the lower right quadrant, late-stage apoptotic cells (stained by both annexin V and PI) are in the upper right quadrant and the necrotic cells (stained by PI only) are in the upper left quadrant.

normal human PBMC = experiment: Apoptosis/necrosis of normal human PBMC by flow cytometry; assay type: cell-based; conditions: 30 μM, 24 hours
Procedure: FIG. 2C indicates flow cytometric determination of apoptosis and necrosis of normal human PBMC by Compound 1 (30 μM) and Compound 7 (30 μM) after incubation for 24 hours.

[12] = 72 hours incubation, trypan blue exclusion, read-out: Activity (IC50) HL-60
[13] = K562, 72 hours incubation, trypan blue exclusion, read-out: Activity (IC50) K562
[14] = range over both cell lines HL60 and U937 and over the listed compounds, read-out: IC50 against acute myeloid leukemia cancer cell line (HL60, U937)
[15] = read-out: IC50 against chronic myeloid leukemia cancer cell lines (K562), range over both cell lines K562, KU812 and KU812 and over the listed compounds, read-out: IC50 against chronic myeloid leukemia cancer cell lines (K562, KU812)

| SMILES | IC50 ([1]; Homo sapiens, MOLT-4, 72 h) [µM] | IC50 [3, 12] [µM] | IC50 [4] [µM] | IC50 [5, 13] [µM] | IC50 ([6]; Homo sapiens, MIA PaCa-2, 72 h) [µM] | IC50 ([7]; Homo sapiens, 72 h) [µM] | IC50 ([8]; Homo sapiens, MCF7, 72 h) [µM] | IC50 [9] [µM] | IC50 [1] [µM] | IC50 [3, 14] [µM] | IC50 [5, 15] [µM] | IC50 [7] [µM] | IC50 [8] [µM] | IC50 [6] [µM] | Sensitivity to spontaneous autooxidation [10] | IC50 [2] [µM] | In vivo efficacy against EAC tumor (viable cells from peritoneal cavity) [11] | Apoptosis and necrosis of U937 cells by flow cytometry (U937 cells) | Apoptosis and necrosis of normal human PBMC by flow cytometry (normal human PBMC) |
| --- | --- | --- | --- | --- | --- | --- | --- | --- | --- | --- | --- | --- | --- | --- | --- | --- | --- | --- | --- |
| CC(C)(C#N)c1ccc(O)c(O)c1 [Compound 10, 2-(3,4-dihydroxyphenyl)-2-methylpropanenitrile] |  | 110 | 115 | 113 | 120 | 120 | 100 | 110 |  |  |  |  |  |  |  | 150 |  |  |  |
| C=CCc1ccc(O)c(O)c1CC=C [Compound 3, 3,4-diallylbenzene-1,2-diol] |  | 60 |  | 52 |  | 25 to 70 |  |  | 50 | 13 to 60 | 13 to 52 |  | 70 | 70 |  | 80 |  |  |  |
| C=CCc1ccc(OC(C)=O)c(OC(C)=O)c1 [Compound 7, 4-allyl-1,2-phenylene diacetate] | 15 to 50 | 15 | 15 | 13 | 30 to 70 | 25 to 70 | 25 to 70 | 13 | 15 | 13 to 60 | 13 to 52 | 25 | 25 | 30 | resistant to spontaneous autooxidation | 70 | effective in vivo in destroying EAC tumor | induce apoptosis and necrosis | remained unaffected |

More lines, main results first:

| IC50 ([1]; Homo sapiens, MOLT-4, 72 h) [µM] | IC50 [3, 12] [µM] | IC50 [4] [µM] | IC50 [5, 13] [µM] | IC50 ([6]; Homo sapiens, MIA PaCa-2, 72 h) [µM] | IC50 ([7]; Homo sapiens, 72 h) [µM] | IC50 ([8]; Homo sapiens, MCF7, 72 h) [µM] | IC50 [9] [µM] | IC50 [1] [µM] | IC50 [3, 14] [µM] | IC50 [5, 15] [µM] | IC50 [7] [µM] | IC50 [8] [µM] | IC50 [6] [µM] | Sensitivity to spontaneous autooxidation [10] | SMILES | IC50 [2] [µM] | In vivo efficacy against EAC tumor (viable cells from peritoneal cavity) [11] | Apoptosis and necrosis of U937 cells by flow cytometry (U937 cells) | Apoptosis and necrosis of normal human PBMC by flow cytometry (normal human PBMC) |
| --- | --- | --- | --- | --- | --- | --- | --- | --- | --- | --- | --- | --- | --- | --- | --- | --- | --- | --- | --- |
| 20 | 15 | 20 | 13 | 20 | 20 | 20 | 15 |  |  |  |  |  |  |  | C=CCc1cccc(OC(C)=O)c1OC(C)=O [Compound 19, 3-allyl-1,2-phenylene diacetate] | 30 |  |  |  |
|  | 50 | 45 | 50 | 30 to 70 |  |  | 45 | 45 | 13 to 60 | 13 to 52 | 70 | 70 |  |  | CCOC(=O)/C=C/C(C)(C)c1ccc(O)c(O)c1 [Compound 13, (E)-ethyl 4-(3,4-dihydroxyphenyl)-4-methylpent-2-enoate] | 75 |  |  |  |

Reference: patent US9290473B2, “Inhibitors of phosphatidylinositol-3-kinase (PI3) and inducers of nitric oxide (NO)” (COUCIL OF SCIENTIFIC & INDUSTRIAL RESEARCH, priority 2009, dated 2016)
